In PubChem BioAssay AID720589 (Broad Institute, 2013):
Activity calls are given as the source filed them.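 The calls were made as follows: active = fitted curve drops below -35% activity at a concentration within twice the top valid tested dose; inconclusive = no clear call, values can overlap the other calls; inactive = signal rising instead of falling, among other cases.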

Key:
[1] = test system: HepG2 viability, ATP luminescence (CellTiter-Glo), 72 h; assay: HepG2 hepatoma cell cytotoxicity, dose response, cytotoxicity control, CellTiter-Glo luminescence, cherry-pick, set 3 (AID 720589)
[2] = as above; details: HepG2 viability, ATP luminescence (CellTiter-Glo), 72 h, active compounds read low, 0% = untreated, negative = ATP loss

Compound	AC35 [1] [µM]	further results
C[C@@H]1CN([C@@H](C)CO)C(=O)c2cc(NC(=O)c3ccccc3)ccc2O[C@@H](C)CCCCO[C@H]1CN(C)C(=O)Nc1cccc2ccccc12	0.927	
O=C(Nc1ccc2c(c1)OCO2)N1C[C@@H]2N[C@H](C1)C2c1ccc(C=Cc2ccccc2)cc1 (some centres undefined)	5.42	
CC(=O)OC1CC(OC2C(O)CC(OC3C(O)CC(OC4CCC5(C)C(CCC6C5CCC5(C)C(C7=CC(=O)OC7)C(O)CC65O)C4)OC3C)OC2C)OC(C)C1OC1OC(CO)C(O)C(O)C1O (centres undefined)	0.475	
COc1ccc(S(=O)(=O)Nc2ccc3c(c2)C(=O)N([C@H](C)CO)C[C@@H](C)[C@@H](CN(C)CC2CCCCC2)OCCCC[C@H](C)O3)cc1	12.2	
C[C@@H]1CN([C@@H](C)CO)C(=O)c2cc(NC(=O)Nc3ccccc3)ccc2O[C@@H]1CN(C)Cc1ccc(C(=O)Nc2ccccc2N)cc1	2.69	
COc1ccc(S(=O)(=O)Nc2cccc3c2O[C@H](CN(C)Cc2ccc(C(=O)Nc4ccccc4N)cc2)[C@H](C)CN([C@@H](C)CO)C3=O)cc1	4.44	
O=C(Nc1cccc(S(=O)(=O)N2CCCC2)c1)c1ccc(Cl)nc1	16	
CCCCc1c(-c2ccccc2OC)ncn1Cc1ccc(C(C)(C)C)cc1	8.48	
C=C1C(=O)[C@@]23[C@H](O)C[C@@H]4C(C)(C)CC[C@H](O)[C@@]4(C)[C@@H]2CC[C@@H]1[C@H]3O	15.3	
OCC1OC(n2ccc3c2ncn2ncnc32)C(O)C1O (centres undefined)	0.339	
COc1ccc(-c2cc(CNc3nc(NC(C)C)nc4cc(-c5ccccc5)sc34)on2)cc1	11	
Cc1ccc(OCCNC(=O)c2cccc(S(=O)(=O)NCc3ccccc3)c2)cc1	19.3	
Cc1ccc(/C=N/Nc2ccnc3cc(Cl)ccc23)c(C)c1	5.3	
C[C@H]1CN([C@@H](C)CO)C(=O)c2cc(NS(=O)(=O)c3ccc(Cl)cc3)ccc2O[C@H]1CN(C)Cc1ccc(C(=O)Nc2ccccc2N)cc1	7.39	
COc1ccc(OC)c(Cc2cnc3nc(N)nc(N)c3c2C)c1	0.0574	
C[C@H]1CN([C@@H](C)CO)C(=O)c2cc(NC(=O)C3CCCCC3)ccc2O[C@H]1CN(C)Cc1ccc(C(=O)Nc2ccccc2N)cc1	1.47	
C[C@H]1CN([C@@H](C)CO)C(=O)Cc2cc(NC(=O)CCC(F)(F)F)ccc2O[C@H]1CN(C)Cc1ccc(C(=O)Nc2ccccc2N)cc1	2.13	
C[C@@H]1CN([C@H](C)CO)S(=O)(=O)c2ccc(C#CC(C)(C)O)cc2O[C@H]1CN(C)Cc1ccc(-c2ccccc2)cc1	6.19	
COc1ccc2cc(C(N)=O)/c(=N\NC(=O)c3ccccc3)oc2c1	17.2	
C=C1C(=O)O[C@@H]2[C@H]1[C@@H](OC(=O)/C(C)=C/C)C/C(C)=C\C(=O)/C=C(\C)[C@@H]2O	12.5	

Compound	AC35 [1] [µM]	further results
COc1ccc(NC(=O)N2CCCCN3[C@@H](CO)[C@H](c4ccc(C5=CCCCC5)cc4)[C@@H]3C2)cc1	10.9	
COc1ccc(Cn2cc3c(-c4ccc(F)cc4)nnc-3c3cc(OC)c(OC)cc32)cc1	10.6	
CC1OC(OC2CC(O)C3(CO)C4C(O)CC5(C)C(C6=CC(=O)OC6)CCC5(O)C4CCC3(O)C2)C(O)C(O)C1O (centres undefined)	0.129	
CN=c1scc(-c2ccccc2F)n1/N=C/c1ccc[nH]1	0.638	
C[C@@H]1CN([C@@H](C)CO)C(=O)c2cc(NS(=O)(=O)c3ccc(F)cc3)ccc2O[C@@H]1CN(C)Cc1ccc(C(=O)Nc2ccccc2N)cc1	0.354	
Nc1nc(N)c2c(ccc3nccc32)[nH]1	4.84	
Cc1cccc(/C=C(\c2nc3ccccc3[nH]2)S(=O)(=O)c2ccccc2)c1	10.7	
C(=C\c1ccc(C2[C@H]3CNC[C@@H]2N3Cc2ccccn2)cc1)/c1ccccc1 (some centres undefined)		max activity ([2]; at 0.011 µM): -23.3% (inactive)
CC(=O)c1ccc(N(C(=O)Cn2nnc3ccccc32)C(C(=O)NCc2ccccc2)c2ccccn2)cc1 (centres undefined)		max activity ([2]; at 8 µM): -38% (inactive)
O=C(NC(=O)c1ccccc1)Nc1ccccc1		max activity ([2]; at 0.1 µM): -38.9% (inactive)
COc1cc(/C=N/NS(=O)(=O)c2ccc3ccccc3c2)ccc1OCc1ccc(C(=O)O)cc1		max activity ([2]; at 0.011 µM): 33.7% (inactive)
CN(C)c1ccc(N=Nc2ccccc2Br)cc1		max activity ([2]; at 2.85 µM): -41.2% (inactive)
C=CCn1c(O)c(N=Nc2ccccc2)c2ccccc21		max activity ([2]; at 0.3 µM): -21.6% (inactive)
Nc1ncn([C@@H]2O[C@H](CO)[C@@H](O)[C@H]2O)c(=O)n1		max activity ([2]; at 0.035 µM): 16% (inactive)
COc1ccc(NC(=O)c2cc3ccccc3oc2=O)cc1		max activity ([2]; at 2.85 µM): -36.9% (inactive)
O=c1cc(-c2ccccc2)oc2ccc3ccccc3c12		max activity ([2]; at 26 µM): -21.9% (inactive)
CN1c2ccc(-c3ccc(C#N)cc3)cc2[C@H]2[C@H](CCN2S(=O)(=O)c2cccc(F)c2)[C@H]1CO		max activity ([2]; at 0.035 µM): -29.8% (inactive)
Cc1ccsc1/C=N/Nc1cccc(C(=O)O)c1		max activity ([2]; at 2.85 µM): -32.4% (inactive)
CCc1ccc(/C=C2\SC(=S)N(CCCC(=O)Nc3cc(C)on3)C2=O)cc1		max activity ([2]; at 0.9 µM): -32.1% (inactive)
